Data reported in patent publication US20140243326A1, “Synergistic Insecticidal Mixtures” (priority 2003, published 2014).
Several values for one entry are separate records, joined by “and”; a condition that tells them apart may be missing. Equal entries are not always repeated.

Legend:
[1] = test system: Phaedon cochleariae larvae; assay: Phaedon cochleariae larvae test (cabbage leaf dip); type: in vivo, mustard beetle (Phaedon cochleariae); details: 4 ppm, single active ingredient
Source text: (§1) The expected effect for a given combination of two active ingredients can be calculated (cf. Colby, S. R., “Calculating Synergistic and Antagonistic Responses of Herbicide Combinations”, Weeds, 15, pp. 20-22, 1967).
(§2) If • X=the kill rate, expressed in % of the untreated control, while using active ingredient A in an application amount of m ppm, • Y=the kill rate, expressed in % of the untreated control, while using active ingredient B in an application amount of n ppm, • E=the kill rate, expressed in % of die untreated control, while using active ingredient A and B in application amounts of m and n ppm, then
(§3) If the actual kill rate is higher than calculated rate, the combination's kill rate is superadditive, i.e., it has a synergistic effect. In this case, the actually observed kill rate must be higher than the value calculated using the above formula for the expected kill rate (E).
(§4) Solvent: 7 parts per weight dimethyl formamide Emulsifiers: 2 parts by weight alkylaryl polyglycol ether
To manufacture one of the appropriate active ingredient preparations, mix 1 part by weight of the active ingredient with the indicated amount of solvent and emulsifier and dilute the concentrate with emulsifier-containing water to the desired concentration.
Cabbage leaves (Brassica oleracea) are treated by being dipped into the active ingredient preparation at the desired concentration and infested with larvae of the mustard beetle (Phaedon cochleariae) while the leaves are still damp.
After the desired time, determine the % that have been killed off. For this purpose 100% means that all the beetle larvae on the leaves were killed; 0% means that no beetle larvae were killed. Calculate the determined kill values using Colby's formula.

[2] = test system: Plutella xylostella, resistant strain; assay: Plutella xylostella test, resistant strain (cabbage leaf dip); type: in vivo, diamondback moth (Plutella xylostella; details: 100 ppm, single active ingredient
Source text: as §1, §2, §3
Solvent: 7 parts per weight dimethyl formamide Emulsifier: 2 parts by weight alkylaryl polyglycol ether
(§5) To prepare one of the appropriate active ingredient preparations, mix 1 part by weight of the active ingredient with the indicated amount of solvent and emulsifier and dilute the concentrate with emulsifier-containing water to the desired concentration.
Cabbage leaves (Brassica oleracea) are treated by being dipped into the active ingredient preparation at the desired concentration and infested with diamondback moth grubs (Plutella xylostella, resistant strain) while the leaves are still damp.
After the desired time, determine the % that have been killed off. For these purposes 100% means that all the grubs on the leaves were killed; 0% means that no grubs were killed. Calculate the determined kill rate values using Colby's formula.

Myzus persicae = Myzus persicae test (cabbage leaf dip); type: in vivo, green peach aphid (Myzus persicae); details: single active ingredient
Source text: as §1, §2, §3, §4, §5
Cabbage leaves (Brassica oleracea) that have been highly infested with the green peach aphid (Myzus persicae) are treated by being dipped into the active ingredient preparation at the desired concentration.
After the desired time, determine the % that have been killed off. For these purposes, 100% means that all the aphids on the leaves were killed; 0% means that no aphids were killed. Calculate the determined kill values using Colby's formula.

**Q.** With CN1COCN(Cc2cnc(Cl)s2)/C1=N/[N+](=O)[O-] [thiamethoxam] as the molecule, how does the “Kill rate in % after 6d” value [1] read?
**A.** The value was 25%.

**Q.** And the “Kill rate in % after 6d” value [2]?
**A.** The value was 75%.

**Q.** And the “Kill rate in % after 6d” value (Myzus persicae; 0.8 ppm)?
**A.** Its value is 85%.

**Q.** How did the “Kill rate in % after 6d” value [1] turn out when CN/C(=N\[N+](=O)[O-])NCc1cnc(Cl)s1 [clothianidin] was run?
**A.** Its value is 75%.

**Q.** Which “Kill rate in % after 6d” value [1] does the source give for N#C/N=C1\SCCN1Cc1ccc(Cl)nc1 [thiacloprid] here?
**A.** Its value is 0%.

**Q.** And the “Kill rate in % after 6d” value [2]?
**A.** The value was 45%.

**Q.** What about the “Dead in % after 6d” value (Myzus persicae; 0.8 ppm) of the same molecule?
**A.** Its value is 30%.

**Q.** How did the “Kill rate in % after 6d” value [2] turn out when CS/C(C)=N\OC(=O)N(C)SN(C)C(=O)O/N=C(\C)SC [thiodicarb] was run?
**A.** The value was 15% and 5%.

**Q.** And the “Dead in % after 6d” value (Myzus persicae; 20 ppm)?
**A.** Its value is 0%.

**Q.** And the “Kill rate in % after 6d” value (Myzus persicae; 20 ppm)?
**A.** The value was 0%.

**Q.** Which “Kill rate in % after 6d” value [1] does the source give for O=[N+]([O-])NC1=NCCN1Cc1ccc(Cl)nc1 [imidacloprid] here?
**A.** The value was 45%.
